Results as given in patent publication US12370143B2, “Compound or salt thereof and lipid particles” (FUJIFILM Corporation, priority 2018, dated 2025).

Assays:
[1] = Encapsulation rate of siRNA in nucleic acid lipid particles (Luc2-siRNA); format: physicochemical; details: compound/DSPC/cholesterol/DMG-PEG2000 50/10/38.5/1.5
Summary of the method: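 Encapsulation rate was calculated as (total − outer-phase siRNA)/total ×100. Total siRNA was quantified spectrophotometrically after lipid-dissolving ethanol precipitation, and unencapsulated siRNA by RiboGreen in TE (ex 485/em 535 nm). The particles were test lipid/DSPC/cholesterol/DMG-PEG2000 at 50/10/38.5/1.5, formed by microfluidic mixing with Luc2-siRNA at pH 4 and dialyzed against PBS.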

[2] = Nucleic acid encapsulation rate of nucleic acid lipid particles (FVII-siRNA); format: physicochemical
Description: A 3 mol/L aqueous sodium acetate solution (30 μL) and 9 μL of glycogen were added to 60 μL of the lipid particles retaining nucleic acids, and then 1.5 mL of ethanol was added thereto such that only the nucleic acids were precipitated while the lipid was dissolved. Then, the supernatant was removed by centrifugation. After the precipitates were air-dried for 15 minutes or longer, water was added thereto such that the precipitates were redissolved, and the concentration thereof was measured using Nanodrop NF1000 (Thermo Fisher Scientific), thereby quantifying the total nucleic acid concentration.
The nucleic acid concentration was quantified using a Quant-iT RiboGreen RNA Assay Kit (Thermo Fisher Scientific) according to the protocol. First, a 20×TE buffer included in the above kit was diluted with water, thereby obtaining a 1×TE buffer. TE represents Tris/EDTA (ethylenediaminetetraacetic acid). In order to quantify only the nucleic acid in the outer water phase, the dispersion liquid of lipid particles retaining nucleic acids was diluted 10,000× with the 1×TE buffer.
The 10,000× diluted dispersion liquid of lipid particles (100 μL) was put in a 96-well plate, then 100 μL of a RiboGreen reagent (reagent included in the Quanti-iT Ribogreen RNA Assay Kit described above) diluted 2000× with the 1×TE buffer was added to a sample, and fluorescence (excitation wavelength: 485 nm, fluorescence wavelength: 535 nm) was measured using a plate reader Infinit EF200 (TECAN), thereby quantifying the nucleic acid concentration in the outer water phase.
By using the total nucleic acid concentration obtained through the above steps and the quantified nucleic acid concentration in the outer water phase, the nucleic acid encapsulation rate of the nucleic acid lipid particles was calculated according to the following Equation. Nucleic acid encapsulation rate (%)=(total nucleic acid concentration−nucleic acid concentration in outer water phase)/total nucleic acid concentration×100 The results are shown in Table 2.
(§1) The Factor VII (FVII) protein was measured according to the method described in Nature Biotechnology (2010) 28, 172-176. C57BL6/J mice were randomly grouped (n=3). A dispersion liquid of nucleic acid lipid particles was prepared by the same method as that in <Preparation of nucleic acid lipid particles>, except that FVII-siRNA having the sequence described in Molecular Therapy (2009) 17, p. 878 was used instead of Luc-siRNA. The dispersion liquid was administered to the caudal vein of the mice at a dosage of 0.1 mg/kg. For comparison, PBS at the same volume was administered to the caudal vein of the mice. Twenty four hours after the administration, blood was collected from the caudal vena cava, thereby obtaining plasma. The amount of FVII protein was quantified using the obtained plasma and a Biophen FVII assay kit (Aniara).

[3] = test system: Factor VII (FVII) protein; experiment: Measurement of Factor VII (FVII) protein in mouse plasma after FVII-siRNA lipid particles; format: in vivo, C57BL6/J mice; details: 0.1 mg/kg caudal vein, plasma 24 hours after administration, PBS group = 100%
Description: as §1
The FVII amount in the plasma sample of each individual in the PBS administration group was regarded as 100%, and the ratio of the FVII amount in the plasma sample of each individual to 100% was adopted as a measurement value.

[4] = Particle size of nucleic acid lipid particles (Luc2-siRNA); format: physicochemical; details: compound/DSPC/cholesterol/DMG-PEG2000 50/10/38.5/1.5
Summary of the method: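 Lipid particles formed from oil phase (test lipid/DSPC/cholesterol/DMG-PEG2000, 50/10/38.5/1.5 molar, 20 mmol/L total in ethanol) micromixed 1:3 with Luc2-siRNA in pH 4 acetate buffer (19.7 μmol/L); siRNA/lipid 339 mol/mol, PBS-diluted and dialyzed. Size measured on ELS-Z2 dynamic light scattering.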

[5] = Particle size of nucleic acid lipid particles (FVII-siRNA); format: physicochemical
Description: The compounds described in Table 2, L-α-distearoylphosphatidylcholine (trade name: COATSOME® MC-8080; NOF corporation), cholesterol (trade name: Choesterol HP; NIPPON FINE CHEMICAL CO., LTD.), and 1,2-dimyristoyl-rac-glycero-3-(methylpolyoxyethylene 2000) (hereinafter, called DMG-PEG2000) (trade name: SUNBRIGHT® GM-020; NOF corporation) were dissolved in ethanol at a molar ratio of 50/10/38.5/1.5 such that the total lipid concentration became 20 mmol/L, thereby obtaining an oil phase.
An aqueous nucleic acid solution obtained by dissolving 5 mg of Luc2-siRNA having the sequence described in Biomacromolecules (2013) 14, p. 3905 in 1 mL of sterile water was diluted with 10 mmol/L acetate buffer having a pH 4 such that the nucleic acid concentration became 19.7 μmol/L, thereby obtaining a water phase. Then, the water phase and the oil phase were mixed together by a micromixer (see JP5288254B) using a syringe pump such that the volume ratio of water phase:oil phase became 3:1 (final ratio of siRNA/lipid=339 (mol/mol)), and the mixed solution was diluted 2× with PBS, thereby obtaining a dispersion liquid of nucleic acid lipid particles. The dispersion liquid was dialyzed (Slide-A-Lyzer G2, MWCO: 10 kD, Thermo Fisher Scientific) using a phosphate buffered saline such that ethanol was removed, thereby obtaining nucleic acid lipid particles.
The particle size of the nucleic acid lipid particles was measured by the same method as that in <Preparation of lipid particles>.
as §1

Nucleic acid encapsulation rate [1] [%] | Nucleic acid encapsulation rate [2] [%] | Particle size (nm) [4] [nm] | Particle size (nm) [5] [nm] | SMILES | Relative amount of FVII protein (%) [3] [%]
88 | 76 | 81.9 | 81.2 | CCCCCCC(CCCCCC)C(=O)OCCCCCCC(CCCCCCOC(=O)C(CCCCCC)CCCCCC)OC(=O)OCCN(CC)CCN(CC)CC [Example 77, 7-(((2-((2-(Diethylamino)ethyl)(ethyl)amino)ethoxy)carbonyl)oxy)tridecane-1,13-diylbis(2-hexyloctanoate)] | 3
74 | 88 | 67.1 | 69.2 | CCCCCCCCCCCC(=O)OCCN(CCOC(=O)OC(CCCCCC)CCCCCCCCC(=O)OCC(CCCC)CCCCCC)CCN(CC)CC (stereo not shown) [Example 86, 2-butyloctyl 6-(2-(dodecanoyloxy)ethyl)-3-ethyl-12-hexyl-10-oxo-9,11-dioxa-3,6-diazahenicosan-21-oate] | 15
83 | 94 | 68.2 | 77.3 | CCCCCCCCC(CCCCCC)COC(=O)CCCCCCCCC(CCCCCC)OC(=O)OCCN(CCN(CC)CC)C(C)C (stereo not shown) [Example 89, 2-Hexyldecyl 3-ethyl-12-hexyl-6-isopropyl-10-oxo-9,11-dioxa-3,6-diazahenicosan-21-oate] | 8
69 | 76 | 75.0 | 66.5 | CCCCCCCC/C=C\CCCCCCCC(=O)OCCN(CCOC(=O)OC(CCCCCC)CCCCCCCCC(=O)OCC(CCCC)CCCCCC)CCN(CC)CC (stereo not shown) [Example 91, 2-Butyloctyl 3-ethyl-12-hexyl-6-(2-(oleoyloxy)ethyl)-10-oxo-9,11-dioxa-3,6-diazahenicosan-21-oate] | 9
82 | 76 | 74.9 | 68.3 | CCCCCCCCCC(=O)OCCN(CCOC(=O)OC(CCCCCC)CCCCCCCCC(=O)OCC(CCCCCC)CCCCCCCC)CCN(CC)CC (stereo not shown) [Example 98, 2-Hexyldecyl 6-(2-(decanoyloxy)ethyl)-3-ethyl-12-hexyl-10-oxo-9,11-dioxa-3,6-diazahenicosan-21-oate] | 2
81 | 79 | 68.9 | 72.3 | CCCCCCCCC(CCCCCC)COC(=O)CCCCCCCCC(CCCCCC)OC(=O)OCCN(CCOC(=O)CCCCCCC)CCN(CC)CC (stereo not shown) [Example 99, 2-Hexyldecyl 3-ethyl-12-hexyl-6-(2-(octanoyloxy)ethyl)-10-oxo-9,11-dioxa-3,6-diazahenicosan-21-oate] | 3
81 | 90 | 78.7 | 78.8 | CCCCCCCC(=O)OCCN(CCOC(=O)OC(CCCCCC)CCCC(=O)OCC(CCCC)CCCCCC)CCN(CC)CC (stereo not shown) [Example 108, 2-Butyloctyl 3-ethyl-12-hexyl-6-(2-(octanoyloxy)ethyl)-10-oxo-9,11-dioxa-3,6-diazahexadecan-16-oate] | 3
90 | 89 | 77.3 | 85.4 | CCCCCCCCC(CCCCCC)COC(=O)CCCCCCCC(CCCCCC)OC(=O)OCCN(CCN(CC)CC)C(C)C (stereo not shown) [Example 117, 2-Hexyldecyl 3-ethyl-12-hexyl-6-isopropyl-10-oxo-9,11-dioxa-3,6-diazaicosan-20-oate] | 12

The remaining lines, values behind:

SMILES | Nucleic acid encapsulation rate [1] [%] | Nucleic acid encapsulation rate [2] [%] | Particle size (nm) [4] [nm] | Particle size (nm) [5] [nm] | Relative amount of FVII protein (%) [3] [%]
CCCCC/C=C\C/C=C\CCCCCCCCC(CCCCCCCC/C=C\C/C=C\CCCCC)N(C)CCN(C)C [Comparative Example 9, N1-((6Z,9Z,28Z,31Z)-heptatriaconta-6,9,28,31-tetraen-19-yl)-N1,N2,N2-trimethylethane-1,2-diamine, reference compound] | 84 | 71 | 58.4 | 60 | 44
CCCCC/C=C\C/C=C\CCCCCCCCC(CCCCCCCC/C=C\C/C=C\CCCCC)OC(=O)OCCN(CCCCCC)CCN(C)C [Example 37, 2-((2-(Dimethylamino)ethyl)(hexyl)amino)ethyl((6Z,9Z,28Z,31Z)-heptatriaconta-6,9,28,31-tetraen-19-yl)carbonate] | 85 | 100 | 80.4 | 74.5 | 17
CCCCC/C=C\C/C=C\CCCCCCCCC(CCCCCCCC/C=C\C/C=C\CCCCC)OC(=O)OCCN(CCCC)CCN(C)C [Example 38, 2-(Butyl(2-(dimethylamino)ethyl)amino)ethyl((6Z,9Z,28Z,31Z)-heptatriaconta-6,9,28,31-tetraen-19-yl)carbonate] | 87 | 100 | 94.2 | 67.9 | 16
CCCCC/C=C\C/C=C\CCCCCCCCC(CCCCCCCC/C=C\C/C=C\CCCCC)OC(=O)OCCN(CCN(CC)CC)C(C)C [Example 42, 2-((2-(Diethylamino)ethyl)(isopropyl)amino)ethyl((6Z,9Z,28Z,31Z)-heptatriaconta-6,9,28,31-tetraen-19-yl)carbonate] | 78 | 70 | 70 | 68.1 | 9
CCCCCCCCC(CCCCCC)COC(=O)CCCC(CCCCCC)OC(=O)OCCN(CCN(CC)CC)C(C)C (stereo not shown) [Example 83, 2-Hexyldecyl 3-ethyl-12-hexyl-6-isopropyl-10-oxo-9,11-dioxa-3,6-diazahexadecan-16-oate] | 82 | 88 | 83.6 | 85.4 | 13
CCCCCCCCCC(CCCCCCCCC)COC(=O)CCCC(CCCCCC)OC(=O)OCCN(CCN(CC)CC)C(C)C (stereo not shown) [Example 124, 2-Nonylundecyl 3-ethyl-12-hexyl-6-isopropyl-10-oxo-9,11-dioxa-3,6-diazahexadecan-16-oate] | 69 | 84 | 68.3 | 73.4 | 8
